{"source": "patent US9540289B2", "about": "“Chelated compositions and methods of making and using the same” (Scott G. Williams, LLC, priority 2010, dated 2017)", "experiment": "Titration of 1% w/w solution with 0.5 M NaOH until precipitate forms", "assay_type": "physicochemical", "protocol": "The finished material was tested by titration with 0.5 M NaOH. A 1% w/w solution was made of the material by placing 1.0042 g in a 100 mL of deionized water. 0.5 M NaOH was then titrated into this solution. The material absorbed 23.8 mL of the 0.5 M NaOH while the solution pH rose from about 2 to about 10.2, whereupon a precipitate formed."}
{"substance": "zinc EDTA chelate [pure zinc EDTA chelate]", "values": [{"measurement": "0.5 M NaOH absorbed until a precipitate formed", "setting": "1% w/w solution in 100 mL deionized water, titrated with 0.5 M NaOH", "value": 5.8, "unit": "mL"}, {"measurement": "solution pH at which a precipitate formed", "setting": "1% w/w solution titrated with 0.5 M NaOH", "value": "above 10.2"}]}
